The test system of assay [1] is Eimeria tenella, Eimeria maxima, and Eimeria acervulina. As to the kind of experiment: Performance of chickens inoculated with Eimeria oocysts, first to 40th day of age (Example 2). In kind it is in vivo. Particulars: salinomycin 66 ppm, AC 1500 ppm, inoculated at 18th day. An excerpt:
(§1) Seven hundred and twenty chickens were randomly distributed into four treatments with six repetitions each, with 30 animals in each repetition. The birds were placed in a conventional yard divided into boxes.
(§2) The four treatments were (1. Non-inoculated, without anticoccidial; 2. Inoculated without anticoccidial; 3. Inoculated-salinomycin (66 ppm); 4. inoculated-AC (1500 ppm)). The birds were inoculated at the 18th day of age with 0.5 liter of inocula containing 10,000, 9,000, and 8,000 sporulated oocysts of Eimeria tenella, Eimeria maxima, and Eimeria acervulina, respectively. This solution was mixed with the feed and offered to each group of 30 birds. At the 24th day of age, the degree of intestinal lesion was evaluated (0—no lesion, 4—maximum lesion). The AC composition was 12% castor oil, 40% cashew nut liquid, and 48% carrier.
(§3) The experimental design utilized seven hundred and twenty chickens which were randomly distributed into four treatments and six repetitions. The averages were compared using the SNK test (Student-Newman-Keuls).

Another assay has as its system E. acervulina. As to the kind of experiment: Degree of intestinal lesion in inoculated chickens, E. acervulina (Example 2). In kind it is in vivo. The following applies: 24th day of age; 0 no lesion, 4 maximum lesion; salinomycin 66 ppm, AC 1500 ppm.
Source text: as §1, §2, §3

The next assay has as its system E. maxima. Kind of assay: Degree of intestinal lesion in inoculated chickens, E. maxima (Example 2). In kind it is in vivo. Particulars: 24th day of age; 0 no lesion, 4 maximum lesion; salinomycin 66 ppm, AC 1500 ppm.
Source text: as §1, §2, §3

The next assay relates to E. tenella. Kind of assay: Degree of intestinal lesion in inoculated chickens, E. tenella (Example 2). In kind it is in vivo. The following applies: 24th day of age; 0 no lesion, 4 maximum lesion; salinomycin 66 ppm, AC 1500 ppm.
Source text: as §1, §2, §3

The test system of assay [2] is bacteria. Kind of assay: Determination of sensitivity of bacteria (Table 9). In kind it is cell-based. The following applies: product at 30 ppm (column 12; columns 11-14 also Free Bacter 3 ppm, Prevent 5 and 3 ppm). The protocol: (§4) The purpose was to determine the antimicrobial action of a combination of cashew nut liquid and ricinoleic acid, and the effects on yeast (Saccharomyces cerevisiae) during alcoholic fermentation, response to different dosages and under acidic conditions. The items below were evaluated: • Laboratory fermentation with Saccharomyces cerevisiae by evaluating the feasibility and growth of yeast, in addition to bacteria developed at different concentrations of the products and mixtures; • Evaluation of the deflocculation power of yeast in fermentations at several dosages of the products and mixtures; • Evaluation of different dosages in the test for Sensitivity of Bacteria to define the quantity of products and mixtures to be recommended in the fermentation process by comparing them to other antibiotics previously tested and approved being used in the current market; • Identification of the characteristics of products and mixtures during the handling; • Evaluation of products and mixtures at low pH by simulating the conventional treatment of the yeast milk. The studies were based on the cause vs. effect methodology, using the observation of the growth of microorganisms as a parameter for responses. […]

For assay [3], the system named is bacteria. Kind of assay: Determination of sensitivity of bacteria (Table 8). The assay is classed as cell-based. Particulars: product at 50, 40, 30 ppm (columns 10-12). The protocol: as §4

In assay [1] (40th day of age), `CC[C@@H](C(=O)[C@@H](C)[C@@H](O)[C@H](C)[C@@H]1O[C@@H]([C@@H](CC)C(=O)O)CC[C@@H]1C)[C@H]1O[C@]2(C=C[C@@H](O)[C@]3(CC[C@@](C)([C@H]4CC[C@](O)(CC)[C@H](C)O4)O3)O2)[C@H](C)C[C@@H]1C` [salinomycin] registered a Final weight of 2305 b g. Moreover, in assay [1] (first to 40th day of age), the Alimentary conversion was found to be 1.78 a, the Ingestion turned out to be 4018 bc g, the Viability is listed as 97.5 a and the Weight gain turned out to be 2261 b g. The “Degree of intestinal lesion, E. acervulina” value in the assay on E. acervulina worked out at 0.72 b. In addition, in the assay on E. maxima, the “Degree of intestinal lesion, E. maxima” value came to 0.72 a. Moreover, the “Degree of intestinal lesion, E. tenella” value in the assay on E. tenella came out at 1.61 a.
For the molecule `CCCCCC[C@@H](O)C/C=C\CCCCCCCC(=O)O` [Product P2, Ricinoleic Acid], the “Performance in sensitivity of bacteria test” value in the assay with bacteria [2] and with bacteria [3] was “negative results” throughout.

The values are drawn from patent publication US8377485B2, “Antimicrobial composition and use thereof” (Oligo Basics Industria e Comercio de Racao Ltda, priority 2007, dated 2013).
